Experimental data from ChEMBL document CHEMBL1201862, “PubChem BioAssay data set” (2004).
Active and inactive are the calls of the source.

What was measured:
[1] = target: T1, Oxysterols receptor LXR-beta (Homo sapiens, UniProt P55055); format: functional, cell-based
T1 sequence (P55055 whole entry): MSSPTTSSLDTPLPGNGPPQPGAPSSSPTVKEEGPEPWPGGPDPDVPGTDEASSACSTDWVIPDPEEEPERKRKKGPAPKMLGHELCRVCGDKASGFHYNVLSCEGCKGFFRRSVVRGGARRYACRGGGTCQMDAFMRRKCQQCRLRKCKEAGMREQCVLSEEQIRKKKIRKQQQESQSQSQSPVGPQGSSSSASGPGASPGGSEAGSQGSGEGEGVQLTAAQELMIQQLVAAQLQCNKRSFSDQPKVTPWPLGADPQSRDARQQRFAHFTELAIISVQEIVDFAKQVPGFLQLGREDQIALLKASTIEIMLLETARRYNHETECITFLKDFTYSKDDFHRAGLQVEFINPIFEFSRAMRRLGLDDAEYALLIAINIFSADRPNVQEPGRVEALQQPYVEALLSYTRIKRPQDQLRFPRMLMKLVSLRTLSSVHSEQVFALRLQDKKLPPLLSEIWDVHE

[2] = target: Metabotropic glutamate receptor 5 (Rattus norvegicus, UniProt P31424); assay: Identification of a glycine sulfonamide based non-MPEP site positive allosteric potentiator (PAM) of mGlu5 (calcium_assay).; format: functional
[3] = tested on: HEK293; assay: viability loss in HEK293T cells – cell-based, ATP luminescence, cherry-pick samples, cytotoxicity control, dose response (AID 687005); format: functional; details: Homo sapiens;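 also: cells exposed to compound for 48 hours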
[4] = HEK293 Cytotoxicity Assay Measured in Cell-Based System Using Plate Reader - 7071-01_Inhibitor_Dose_CherryPick_Activity_Set2.; format: functional
[5] = target: T1, Oxysterols receptor LXR-beta; format: functional, cell-based; remark: listed apart in the source
[6] = target: T2, Protein skinhead-1 (Caenorhabditis elegans, UniProt P34707); format: functional
T2 sequence (P34707 whole entry): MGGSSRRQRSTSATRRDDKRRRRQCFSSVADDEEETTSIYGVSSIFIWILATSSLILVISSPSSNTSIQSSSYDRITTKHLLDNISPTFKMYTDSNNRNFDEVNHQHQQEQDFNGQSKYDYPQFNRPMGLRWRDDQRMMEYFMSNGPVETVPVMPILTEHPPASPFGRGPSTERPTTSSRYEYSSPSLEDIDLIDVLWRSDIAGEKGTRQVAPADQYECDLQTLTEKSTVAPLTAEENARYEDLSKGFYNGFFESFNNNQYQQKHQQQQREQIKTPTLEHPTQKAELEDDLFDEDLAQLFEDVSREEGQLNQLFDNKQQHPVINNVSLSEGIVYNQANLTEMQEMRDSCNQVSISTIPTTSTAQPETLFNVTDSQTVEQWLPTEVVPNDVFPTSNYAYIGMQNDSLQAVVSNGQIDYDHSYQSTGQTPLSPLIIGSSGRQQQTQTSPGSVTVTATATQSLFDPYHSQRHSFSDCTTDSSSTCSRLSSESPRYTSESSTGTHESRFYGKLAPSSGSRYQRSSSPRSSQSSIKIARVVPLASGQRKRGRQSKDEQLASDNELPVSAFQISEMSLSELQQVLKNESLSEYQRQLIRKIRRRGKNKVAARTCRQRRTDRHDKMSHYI

[7] = cells
[8] = target: Major prion protein (Homo sapiens, UniProt P04156); format: functional, cell-based
[9] = cells; remark: listed apart in the source

SMILES: Nc1ncc(Br)cc1/N=C/c1ccccc1
- EC50 [1]: > 67.5 µM (inactive)

SMILES: O=S(=O)(c1ccc(C#Cc2cccc(F)c2)cc1)N1CCOCC1
- EC50 [2]: 0.427 µM

SMILES: Cc1noc(C)c1NC(=O)N(C)C[C@@H]1Oc2ccc(NC(=O)NC(C)C)cc2CC(=O)N([C@H](C)CO)C[C@H]1C
- AC50 [3]: 1.61 µM (active)
- AC50 [4]: 1.61 µM (active)

SMILES: Fc1ccccc1-c1nc(-c2ccc(Br)o2)no1
- EC50 [5]: > 67.6 µM (inactive)
- IC50 [6]: > 100 µM (inactive)
- EC50 [7]: > 67.6 µM (inactive)

SMILES: CCOC(=O)CSc1nc(Cc2ccccc2)nc2ccccc12
- IC50 [8]: 4.31 µM (active)
- IC50 [9]: > 138 µM (inactive)
